ChEMBL document CHEMBL1909294, “Translating clinical findings into knowledge in drug safety evaluation--drug induced liver injury prediction system (DILIps)” (PLoS Comput Biol, 2011)

Legend:
[1] = tested on: Hepatotoxicity;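 on HepSE Combined Scores: combined hepatic side effect score as listed in the training data of the Drug Induced Liver Injury Prediction System (DILIps)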;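 on HepSE cholecystitis: Cholecystitis-related hepatic side effect score drawn from the DILIps (drug-induced liver injury prediction) training data set; call rule not given here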;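 on HepSE cirrhosis: cirrhosis hepatic side effect score taken from the DILIps (drug-induced liver injury prediction) training set; call rule not given here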;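 on HepSE hepatomegaly: hepatic side effect score for hepatomegaly, taken from the training set of the DILIps drug-induced liver injury prediction system; call rule not given here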; on HepSE liver disease: call rule not given here;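 on HepSE liver fatty: hepatic side effect score for fatty liver, taken from the DILIps training set for predicting drug-induced liver injury; call rule not given here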;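 on HepSE liver function tests abnormal: hepatic side effect score taken from the DILIps (drug-induced liver injury prediction system) training data, here covering abnormal liver function test findings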
[2] = tested on: Hepatotoxicity; remark: listed apart in the source;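 on HepSE Combined Scores: combined hepatic side effect score as listed in the training data of the Drug Induced Liver Injury Prediction System (DILIps)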;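 on HepSE cholecystitis: Cholecystitis-related hepatic side effect score drawn from the DILIps (drug-induced liver injury prediction) training data set; call rule not given here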;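 on HepSE cirrhosis: cirrhosis hepatic side effect score taken from the DILIps (drug-induced liver injury prediction) training set; call rule not given here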;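 on HepSE hepatomegaly: hepatic side effect score for hepatomegaly, taken from the training set of the DILIps drug-induced liver injury prediction system; call rule not given here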; on HepSE liver disease: call rule not given here;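 on HepSE liver fatty: hepatic side effect score for fatty liver, taken from the DILIps training set for predicting drug-induced liver injury; call rule not given here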;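 on HepSE liver function tests abnormal: hepatic side effect score taken from the DILIps (drug-induced liver injury prediction system) training data, here covering abnormal liver function test findings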
[3] = tested on: Hepatotoxicity; remark: listed apart in the source;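 on HepSE Combined Scores: combined hepatic side effect score as listed in the training data of the Drug Induced Liver Injury Prediction System (DILIps)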;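 on HepSE cirrhosis: cirrhosis hepatic side effect score taken from the DILIps (drug-induced liver injury prediction) training set; call rule not given here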;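 on HepSE hepatomegaly: hepatic side effect score for hepatomegaly, taken from the training set of the DILIps drug-induced liver injury prediction system; call rule not given here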; on HepSE liver disease: call rule not given here;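 on HepSE liver fatty: hepatic side effect score for fatty liver, taken from the DILIps training set for predicting drug-induced liver injury; call rule not given here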;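 on HepSE liver function tests abnormal: hepatic side effect score taken from the DILIps (drug-induced liver injury prediction system) training data, here covering abnormal liver function test findings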
[4] = tested on: Hepatotoxicity; remark: listed apart in the source;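 on HepSE Combined Scores: combined hepatic side effect score as listed in the training data of the Drug Induced Liver Injury Prediction System (DILIps)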;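 on HepSE cirrhosis: cirrhosis hepatic side effect score taken from the DILIps (drug-induced liver injury prediction) training set; call rule not given here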;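 on HepSE hepatomegaly: hepatic side effect score for hepatomegaly, taken from the training set of the DILIps drug-induced liver injury prediction system; call rule not given here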; on HepSE liver disease: call rule not given here;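 on HepSE liver fatty: hepatic side effect score for fatty liver, taken from the DILIps training set for predicting drug-induced liver injury; call rule not given here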;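 on HepSE liver function tests abnormal: hepatic side effect score taken from the DILIps (drug-induced liver injury prediction system) training data, here covering abnormal liver function test findings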
[5] = tested on: Hepatotoxicity; remark: listed apart in the source; on HepSE liver disease: call rule not given here
[6] = tested on: Hepatotoxicity; remark: listed apart in the source; on HepSE liver disease: call rule not given here
[7] = tested on: Hepatotoxicity; remark: listed apart in the source
[8] = tested on: Hepatotoxicity; remark: listed apart in the source
[9] = tested on: Hepatotoxicity; remark: listed apart in the source
[10] = tested on: Hepatotoxicity; remark: listed apart in the source
[11] = tested on: Hepatotoxicity; remark: listed apart in the source
[12] = tested on: Hepatotoxicity; remark: listed apart in the source
[13] = tested on: Hepatotoxicity; remark: listed apart in the source
[14] = tested on: Hepatotoxicity; remark: listed apart in the source

| SMILES | HepSE_liver disease [1] | HepSE_cirrhosis [2] | HepSE_liver fatty [3] | HepSE_hepatomegaly [4] | HepSE_Combined Scores [5] | HepSE_liver function tests abnormal [6] | HepSE_cholecystitis [7] | HepSE_hepatic necrosis [8] | HepSE_cholelithiasis [9] | HepSE_hepatitis [10] | HepSE_elevated liver function tests [11] | HepSE_hepatic failure [12] | HepSE_bilirubinemia [13] | HepSE_jaundice [14] | also measured |
| --- | --- | --- | --- | --- | --- | --- | --- | --- | --- | --- | --- | --- | --- | --- | --- |
| CC(=O)[C@]1(O)Cc2c(O)c3c(c(O)c2[C@@H](O[C@H]2C[C@H](N)[C@H](O)[C@H](C)O2)C1)C(=O)c1ccccc1C3=O [IDARUBICIN] | 0 | 0 | 0 | 0 | 0 | 0 | 0 | 0 | 0 | 0 | 0 | 0 | 0 | 0 | – |
| CN1C[C@H](C(=O)N[C@]2(C)O[C@@]3(O)[C@@H]4CCCN4C(=O)[C@H](Cc4ccccc4)N3C2=O)C[C@@H]2c3cccc4[nH]cc(c34)C[C@H]21 [DIHYDROERGOTAMINE] | 0 | 0 | 0 | 0 | 0 | 0 | 0 | 0 | 0 | 0 | 0 | 0 | 0 | 0 | – |
| CC(C)CC(N(C)C)C1(c2ccc(Cl)cc2)CCC1 (stereo not drawn) [SIBUTRAMINE] | 0 | 0 | 0 | 0 | 3 | 1 | 1 | 0 | 1 | 0 | 0 | 0 | 0 | 0 | – |
| CCN1C(=O)NC(c2ccccc2)C1=O (stereo not drawn) [ETHOTOIN] | 0 | 0 | 0 | 0 | 0 | 0 | 0 | 0 | 0 | 0 | 0 | 0 | 0 | 0 | – |
| NCC(=O)O [GLYCINE] | – | – | – | – | – | – | – | – | – | – | – | – | – | – | HepSE_liver disease ([1]; Liver): 0; HepSE_cirrhosis ([2]; Liver): 0; HepSE_liver fatty ([3]; Liver): 0; HepSE_hepatomegaly ([4]; Liver): 0; HepSE_Combined Scores ([5]; Liver): 0; HepSE_liver function tests abnormal ([6]; Liver): 0; HepSE_cholecystitis ([7]; Liver): 0; HepSE_hepatic necrosis ([8]; Liver): 0; HepSE_cholelithiasis ([9]; Liver): 0; HepSE_hepatitis ([10]; Liver): 0; HepSE_elevated liver function tests ([11]; Liver): 0; HepSE_hepatic failure ([12]; Liver): 0; HepSE_bilirubinemia ([13]; Liver): 0; HepSE_jaundice ([14]; Liver): 0 |
| COc1cc([C@@H]2c3cc4c(cc3[C@H](O)[C@H]3COC(=O)[C@H]23)OCO4)cc(OC)c1OC [PODOFILOX] | 0 | 0 | 0 | 0 | 0 | 0 | 0 | 0 | 0 | 0 | 0 | 0 | 0 | 0 | – |
| CC1(C)S[C@@H]2[C@H](NC(=O)[C@H](N)c3ccccc3)C(=O)N2[C@H]1C(=O)O [AMPICILLIN] | 0 | 0 | 0 | 0 | 0 | 0 | 0 | 0 | 0 | 0 | 0 | 0 | 0 | 0 | – |
| CC(C)c1nc(N(C)S(C)(=O)=O)nc(-c2ccc(F)cc2)c1/C=C/[C@@H](O)C[C@@H](O)CC(=O)O [ROSUVASTATIN] | 0 | 0 | 0 | 0 | 2 | 0 | 0 | 0 | 0 | 1 | 0 | 0 | 0 | 1 | – |
| CC1(C)O[C@@H]2C[C@H]3[C@@H]4CCC5=CC(=O)CC[C@]5(C)[C@@]4(F)[C@@H](O)C[C@]3(C)[C@]2(C(=O)CCl)O1 [HALCINONIDE] | 0 | 0 | 0 | 0 | 0 | 0 | 0 | 0 | 0 | 0 | 0 | 0 | 0 | 0 | – |
| CC(C)OC(=O)CCC/C=C\C[C@@H]1[C@@H](/C=C/[C@@H](O)COc2cccc(C(F)(F)F)c2)[C@H](O)C[C@@H]1O [TRAVOPROST] | 0 | 0 | 0 | 0 | 0 | 0 | 0 | 0 | 0 | 0 | 0 | 0 | 0 | 0 | – |
| NC12CC3CC(CC(C3)C1)C2 [AMANTADINE] | 0 | 0 | 0 | 0 | 0 | 0 | 0 | 0 | 0 | 0 | 0 | 0 | 0 | 0 | – |
| CCCCC[C@H](O)/C=C/[C@@H]1[C@H]2C/C(=C/CCCC(=O)O)O[C@H]2C[C@H]1O [EPOPROSTENOL] | 0 | 0 | 0 | 0 | 1 | 0 | 0 | 0 | 0 | 0 | 0 | 1 | 0 | 0 | – |
| NNCCc1ccccc1 [PHENELZINE] | – | – | – | – | – | – | – | – | – | – | – | – | – | – | HepSE_liver disease ([1]; Liver): 0; HepSE_cirrhosis ([2]; Liver): 0; HepSE_liver fatty ([3]; Liver): 0; HepSE_hepatomegaly ([4]; Liver): 0; HepSE_Combined Scores ([5]; Liver): 1; HepSE_liver function tests abnormal ([6]; Liver): 0; HepSE_cholecystitis ([7]; Liver): 0; HepSE_hepatic necrosis ([8]; Liver): 0; HepSE_cholelithiasis ([9]; Liver): 0; HepSE_hepatitis ([10]; Liver): 0; HepSE_elevated liver function tests ([11]; Liver): 0; HepSE_hepatic failure ([12]; Liver): 0; HepSE_bilirubinemia ([13]; Liver): 0; HepSE_jaundice ([14]; Liver): 1 |
| C[C@H]1O[C@H](O[C@H]2[C@H](O)[C@@H](O)[C@@H](O[C@H]3[C@H](O)[C@@H](O)C(O)O[C@@H]3CO)O[C@@H]2CO)[C@H](O)[C@@H](O)[C@@H]1N[C@H]1C=C(CO)[C@@H](O)[C@H](O)[C@H]1O (stereo partly drawn) [ACARBOSE] | 0 | 0 | 0 | 0 | 3 | 1 | 0 | 0 | 0 | 1 | 0 | 0 | 0 | 1 | – |
| CN(C)CCCOc1nn(Cc2ccccc2)c2ccccc12 [BENZYDAMINE] | 0 | 0 | 0 | 0 | 0 | 0 | 0 | 0 | 0 | 0 | 0 | 0 | 0 | 0 | – |
| Nc1nc(NC2CC2)c2ncn([C@H]3C=C[C@@H](CO)C3)c2n1 [ABACAVIR] | 0 | 0 | 1 | 0 | 3 | 0 | 0 | 0 | 0 | 0 | 1 | 1 | 0 | 0 | – |
| NC1=NCC2c3ccccc3Cc3ccccc3N12 (stereo not drawn) [EPINASTINE] | – | – | – | – | – | – | – | – | – | – | – | – | – | – | HepSE_liver disease ([1]; Liver): 0; HepSE_cirrhosis ([2]; Liver): 0; HepSE_liver fatty ([3]; Liver): 0; HepSE_hepatomegaly ([4]; Liver): 0; HepSE_Combined Scores ([5]; Liver): 0; HepSE_liver function tests abnormal ([6]; Liver): 0; HepSE_cholecystitis ([7]; Liver): 0; HepSE_hepatic necrosis ([8]; Liver): 0; HepSE_cholelithiasis ([9]; Liver): 0; HepSE_hepatitis ([10]; Liver): 0; HepSE_elevated liver function tests ([11]; Liver): 0; HepSE_hepatic failure ([12]; Liver): 0; HepSE_bilirubinemia ([13]; Liver): 0; HepSE_jaundice ([14]; Liver): 0 |
